{
  "source": "the NIST ThermoML archive (doi:10.1016/j.tca.2005.01.064)",
  "key": {"[1]": {"test": "excess molar enthalpy (molar enthalpy of mixing); xn = mol fraction of the nth substance listed", "details": "308.15 K, 101.33 kPa, Liquid, Flow calorimetry"}, "[2]": {"details": "308.15 K; 101.33 kPa; Liquid; Vibrating tube method"}},
  "note": "Numbers after ± are expanded uncertainties.",
  "data": [
    {"compound": "OCCOCCOCCO", "note": "[triethylene glycol] + CCO", "values": [
      {"measurement": "excess molar enthalpy", "setting": "[1]; x1 = 0.0313", "value": "0.0319 ± 0.00055", "unit": "kcal/mol"},
      {"measurement": "excess molar enthalpy", "setting": "[1]; x1 = 0.0606", "value": "0.0563 ± 0.000813", "unit": "kcal/mol"},
      {"measurement": "excess molar enthalpy", "setting": "[1]; x1 = 0.0883", "value": "0.077 ± 0.001", "unit": "kcal/mol"},
      {"measurement": "excess molar enthalpy", "setting": "[1]; x1 = 0.1143", "value": "0.0905 ± 0.00115", "unit": "kcal/mol"},
      {"measurement": "excess molar enthalpy", "setting": "[1]; x1 = 0.1623", "value": "0.111 ± 0.00136", "unit": "kcal/mol"},
      {"measurement": "excess molar enthalpy", "setting": "[1]; x1 = 0.2047", "value": "0.125 ± 0.00148", "unit": "kcal/mol"},
      {"measurement": "excess molar enthalpy", "setting": "[1]; x1 = 0.2792", "value": "0.141 ± 0.00165", "unit": "kcal/mol"},
      {"measurement": "excess molar enthalpy", "setting": "[1]; x1 = 0.3405", "value": "0.145 ± 0.0017", "unit": "kcal/mol"},
      {"measurement": "excess molar enthalpy", "setting": "[1]; x1 = 0.4365", "value": "0.15 ± 0.00174", "unit": "kcal/mol"},
      {"measurement": "excess molar enthalpy", "setting": "[1]; x1 = 0.5376", "value": "0.146 ± 0.0017", "unit": "kcal/mol"},
      {"measurement": "excess molar enthalpy", "setting": "[1]; x1 = 0.6078", "value": "0.145 ± 0.0017", "unit": "kcal/mol"},
      {"measurement": "excess molar enthalpy", "setting": "[1]; x1 = 0.6992", "value": "0.132 ± 0.00155", "unit": "kcal/mol"},
      {"measurement": "excess molar enthalpy", "setting": "[1]; x1 = 0.756", "value": "0.117 ± 0.00141", "unit": "kcal/mol"},
      {"measurement": "excess molar enthalpy", "setting": "[1]; x1 = 0.823", "value": "0.0973 ± 0.00122", "unit": "kcal/mol"},
      {"measurement": "excess molar enthalpy", "setting": "[1]; x1 = 0.8613", "value": "0.0786 ± 0.00103", "unit": "kcal/mol"},
      {"measurement": "excess molar enthalpy", "setting": "[1]; x1 = 0.9029", "value": "0.0595 ± 0.000837", "unit": "kcal/mol"},
      {"measurement": "excess molar enthalpy", "setting": "[1]; x1 = 0.949", "value": "0.0324 ± 0.000574", "unit": "kcal/mol"}
    ]},
    {"compound": "CCO", "note": "[ethanol]", "values": [
      {"measurement": "mass density", "setting": "[2]", "value": "776.41 ± 0.17", "unit": "kg/m3"}
    ]},
    {"compound": "OCCOCCO", "note": "[diethylene glycol] + CCO", "values": [
      {"measurement": "excess molar enthalpy", "setting": "[1]; x1 = 0.0434", "value": "0.0185 ± 0.00043", "unit": "kcal/mol"},
      {"measurement": "excess molar enthalpy", "setting": "[1]; x1 = 0.0833", "value": "0.0319 ± 0.00055", "unit": "kcal/mol"},
      {"measurement": "excess molar enthalpy", "setting": "[1]; x1 = 0.1199", "value": "0.0422 ± 0.000669", "unit": "kcal/mol"},
      {"measurement": "excess molar enthalpy", "setting": "[1]; x1 = 0.1537", "value": "0.0483 ± 0.000717", "unit": "kcal/mol"},
      {"measurement": "excess molar enthalpy", "setting": "[1]; x1 = 0.2142", "value": "0.0582 ± 0.000813", "unit": "kcal/mol"},
      {"measurement": "excess molar enthalpy", "setting": "[1]; x1 = 0.2663", "value": "0.063 ± 0.00086", "unit": "kcal/mol"},
      {"measurement": "excess molar enthalpy", "setting": "[1]; x1 = 0.3528", "value": "0.0668 ± 0.000908", "unit": "kcal/mol"},
      {"measurement": "excess molar enthalpy", "setting": "[1]; x1 = 0.4208", "value": "0.0668 ± 0.000908", "unit": "kcal/mol"},
      {"measurement": "excess molar enthalpy", "setting": "[1]; x1 = 0.5216", "value": "0.0644 ± 0.000884", "unit": "kcal/mol"},
      {"measurement": "excess molar enthalpy", "setting": "[1]; x1 = 0.6206", "value": "0.0565 ± 0.000813", "unit": "kcal/mol"},
      {"measurement": "excess molar enthalpy", "setting": "[1]; x1 = 0.6856", "value": "0.0507 ± 0.000741", "unit": "kcal/mol"},
      {"measurement": "excess molar enthalpy", "setting": "[1]; x1 = 0.7658", "value": "0.0417 ± 0.000645", "unit": "kcal/mol"},
      {"measurement": "excess molar enthalpy", "setting": "[1]; x1 = 0.8135", "value": "0.0353 ± 0.000598", "unit": "kcal/mol"},
      {"measurement": "excess molar enthalpy", "setting": "[1]; x1 = 0.8674", "value": "0.0262 ± 0.000502", "unit": "kcal/mol"},
      {"measurement": "excess molar enthalpy", "setting": "[1]; x1 = 0.8973", "value": "0.0217 ± 0.000454", "unit": "kcal/mol"},
      {"measurement": "excess molar enthalpy", "setting": "[1]; x1 = 0.929", "value": "0.0152 ± 0.000382", "unit": "kcal/mol"},
      {"measurement": "excess molar enthalpy", "setting": "[1]; x1 = 0.9632", "value": "0.00786 ± 0.000311", "unit": "kcal/mol"}
    ]},
    {"compound": "OCCOCCO", "note": "[diethylene glycol]", "values": [
      {"measurement": "mass density", "setting": "[2]", "value": "1105.65 ± 0.57", "unit": "kg/m3"}
    ]},
    {"compound": "OCCO", "note": "[1,2-ethanediol] + CCO", "values": [
      {"measurement": "excess molar enthalpy", "setting": "[1]; x1 = 0.0719", "value": "0.0526 ± 0.000765", "unit": "kcal/mol"},
      {"measurement": "excess molar enthalpy", "setting": "[1]; x1 = 0.1341", "value": "0.0833 ± 0.00108", "unit": "kcal/mol"},
      {"measurement": "excess molar enthalpy", "setting": "[1]; x1 = 0.1886", "value": "0.103 ± 0.00127", "unit": "kcal/mol"},
      {"measurement": "excess molar enthalpy", "setting": "[1]; x1 = 0.2365", "value": "0.115 ± 0.00139", "unit": "kcal/mol"},
      {"measurement": "excess molar enthalpy", "setting": "[1]; x1 = 0.3173", "value": "0.126 ± 0.00151", "unit": "kcal/mol"},
      {"measurement": "excess molar enthalpy", "setting": "[1]; x1 = 0.3826", "value": "0.131 ± 0.00155", "unit": "kcal/mol"},
      {"measurement": "excess molar enthalpy", "setting": "[1]; x1 = 0.4817", "value": "0.131 ± 0.00155", "unit": "kcal/mol"},
      {"measurement": "excess molar enthalpy", "setting": "[1]; x1 = 0.5533", "value": "0.125 ± 0.00148", "unit": "kcal/mol"},
      {"measurement": "excess molar enthalpy", "setting": "[1]; x1 = 0.6502", "value": "0.115 ± 0.00139", "unit": "kcal/mol"},
      {"measurement": "excess molar enthalpy", "setting": "[1]; x1 = 0.7361", "value": "0.099 ± 0.00122", "unit": "kcal/mol"},
      {"measurement": "excess molar enthalpy", "setting": "[1]; x1 = 0.788", "value": "0.0846 ± 0.00108", "unit": "kcal/mol"},
      {"measurement": "excess molar enthalpy", "setting": "[1]; x1 = 0.8479", "value": "0.0684 ± 0.000932", "unit": "kcal/mol"},
      {"measurement": "excess molar enthalpy", "setting": "[1]; x1 = 0.8815", "value": "0.0565 ± 0.000813", "unit": "kcal/mol"},
      {"measurement": "excess molar enthalpy", "setting": "[1]; x1 = 0.9177", "value": "0.0413 ± 0.000645", "unit": "kcal/mol"},
      {"measurement": "excess molar enthalpy", "setting": "[1]; x1 = 0.9371", "value": "0.0333 ± 0.000574", "unit": "kcal/mol"},
      {"measurement": "excess molar enthalpy", "setting": "[1]; x1 = 0.9571", "value": "0.0229 ± 0.000478", "unit": "kcal/mol"},
      {"measurement": "excess molar enthalpy", "setting": "[1]; x1 = 0.9781", "value": "0.012 ± 0.000359", "unit": "kcal/mol"}
    ]},
    {"compound": "OCCOCCOCCO", "note": "[triethylene glycol]", "values": [
      {"measurement": "mass density", "setting": "[2]", "value": "1112.09 ± 0.57", "unit": "kg/m3"}
    ]}
  ]
}
